The values that follow come from BindingDB's records for doi:10.1016/j.bioorg.2017.04.006 (China Pharmaceutical University, 2017).

SMILES strings stand for the structures.

Test [1] has as its target Lysine-specific histone demethylase 1A (Homo sapiens, UniProt O60341). Briefly: LSD1 Screening Assay. The conditions noted are these: pH 7.5; 25 °C. The procedure:
The LSD1 screening biochemical assay was performed by Shanghai ChemPartner Co. Ltd and the detailed protocol was shown as followed. The AlphaLISA assay of LSD1 (BPS Bioscience) was performed in modified Tris buffer (pH 7.5). Briefly, the compoundsin DMSO were transferred to assay plate by Echo 550, followed by pre-incubating with enzyme (final concentration is 5 nM) for 15 min at room temperature. The initiation of reactions were added H3K4me2 peptide solution (final concentration is 100 nM) to the reaction mixtures and then incubated for 60 min at roomtemperature. The reactions were terminated by the addition of the acceptor and donor beads mix (PerkinElmer) and incubated for 60 min at room temperature, and finally read on EnSpire (PerkinElmer) in Alpha Mode.

In test [2] the target is T1, Amine oxidase [flavin-containing] A (Homo sapiens, UniProt P21397).
T1 sequence (P21397 whole entry): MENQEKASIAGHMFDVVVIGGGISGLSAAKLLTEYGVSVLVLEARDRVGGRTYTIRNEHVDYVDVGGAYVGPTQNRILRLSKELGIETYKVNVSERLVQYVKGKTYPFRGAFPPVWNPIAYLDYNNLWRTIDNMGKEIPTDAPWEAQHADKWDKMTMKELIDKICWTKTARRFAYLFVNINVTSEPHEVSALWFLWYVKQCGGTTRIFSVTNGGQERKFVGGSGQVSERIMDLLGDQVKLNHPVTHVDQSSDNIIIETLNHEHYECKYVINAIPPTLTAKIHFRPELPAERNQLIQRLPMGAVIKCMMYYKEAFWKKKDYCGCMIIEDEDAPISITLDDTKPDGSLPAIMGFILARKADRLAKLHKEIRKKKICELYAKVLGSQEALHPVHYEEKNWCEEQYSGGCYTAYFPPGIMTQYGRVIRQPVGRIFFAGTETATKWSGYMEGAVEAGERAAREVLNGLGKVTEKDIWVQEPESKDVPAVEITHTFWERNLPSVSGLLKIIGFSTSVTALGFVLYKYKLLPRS
Briefly: MAO-A and MAO-B Assay. An excerpt: (§1) The MAO-A and MAO-B is purchased from Active Motif (Cat#31502, Cat#31503). Biochemical Kit is purchased from Promega (MAO-Glo Assay, V1402). The inhibition of selectivity assay was preformed in light of the manufacturer's protocol.

In test [3] the target is T2, Amine oxidase [flavin-containing] B (Homo sapiens, UniProt P27338).
T2 sequence (P27338 whole entry): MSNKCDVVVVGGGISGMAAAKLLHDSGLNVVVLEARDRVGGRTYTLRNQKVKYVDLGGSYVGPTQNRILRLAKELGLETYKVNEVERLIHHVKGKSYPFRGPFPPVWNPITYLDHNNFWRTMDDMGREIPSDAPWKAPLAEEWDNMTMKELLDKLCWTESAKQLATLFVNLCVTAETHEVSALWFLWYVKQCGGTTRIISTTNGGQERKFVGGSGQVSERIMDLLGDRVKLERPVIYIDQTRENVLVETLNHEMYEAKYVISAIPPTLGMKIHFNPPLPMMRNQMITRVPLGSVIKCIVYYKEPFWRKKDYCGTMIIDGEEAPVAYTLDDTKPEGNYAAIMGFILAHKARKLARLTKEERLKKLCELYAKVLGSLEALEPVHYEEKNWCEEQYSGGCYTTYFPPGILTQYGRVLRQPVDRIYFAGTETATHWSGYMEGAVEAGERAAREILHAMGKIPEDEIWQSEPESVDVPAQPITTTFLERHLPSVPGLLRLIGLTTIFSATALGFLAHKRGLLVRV
The experiment in a line: MAO-A and MAO-B Assay.
Excerpt: as §1

In the case of `CC(Nc1cc(Cl)ccc1O)C(=O)Nc1cccc(S(=O)(=O)N(C)C)c1` (stereo not drawn), in test [1], the 50% inhibitory concentration (IC50) (in general, the concentration at which inhibition is half-maximal) turned out to be 12 µM.

As to `CN(CC(=O)Nc1cccc(S(=O)(=O)N(C)C)c1)c1cc(Cl)ccc1O` [2-((5-Chloro-2-hydroxyphenyl)(methyl)amino)-N-(3-(N,N-dimethylsulfamoyl)phenyl)acetamide (7e)], inhibition in test [1] was half-maximal at 13 µM (IC50).

For the molecule `CN(CC(=O)Nc1cccc(S(=O)(=O)N2CCOCC2)c1)c1cc(Cl)ccc1O` [2-((5-Chloro-2-hydroxyphenyl)(methyl)amino)-N-(3-(morpholinosulfonyl)phe-nyl)acetamide (7b)], the IC50 in test [1] was found to be 9.5 µM; in test [2], 187 µM; in test [3] it was 65.7 µM.

As for `CN(CC(=O)Nc1cccc(S(=O)(=O)N2CCCCC2)c1)c1cc(Cl)ccc1O` [2-((5-Chloro-2-hydroxyphenyl)(methyl)amino)-N-(3-(piperidin-1-ylsulfonyl)phenyl)acetamide (7g)], half-maximal inhibition in test [1] (IC50) required 11 µM.

`CN(C)S(=O)(=O)c1cccc(NC(=O)CNc2cc(Cl)ccc2O)c1` [2-((5-Chloro-2-hydroxyphenyl)amino)-N-(3-(N,N-dimethylsulfamoyl)phenyl)-acetamide (7d)] had a half-inhibitory concentration (IC50) in test [1] of 14 µM.

In test [1], `O=C(CNc1cc(Cl)ccc1O)Nc1cccc(S(=O)(=O)N2CCOCC2)c1` [2-((5-Chloro-2-hydroxyphenyl)amino)-N-(3-(morpholinosulfonyl)phenyl)acetamide (7a)] yielded an IC50 of 13 µM.

Regarding `CC(Nc1cc(Cl)ccc1O)C(=O)Nc1cccc(S(=O)(=O)N2CCOCC2)c1` (stereo not drawn) [2-((5-Chloro-2-hydroxyphenyl)amino)-N-(3-(morpholinosulfonyl)phenyl)propanamide (7c)], in test [1], 13 µM corresponded to half-maximal inhibition (IC50).

In the case of `CC(Nc1cc(Cl)ccc1O)C(=O)Nc1cccc(S(=O)(=O)N2CCCCC2)c1` (stereo not drawn) [2-((5-Chloro-2-hydroxyphenyl)amino)-N-(3-(piperidin-1-ylsulfonyl)phenyl)propanamide (7h)], the concentration for half-maximal inhibition (IC50) came to 6.9 µM in test [1], 114 µM in test [2] and 102 µM in test [3].

Molecule `C/C(=N\NC(=O)c1cccc(S(=O)(=O)N2CCOCC2)c1)c1cc(Cl)ccc1O` [US8987335, 12] had an IC50 in test [1] of 0.011 µM.
